In ChEMBL document CHEMBL1157955, “Anti-inflammatory neolignans from Piper kadsura” (J Nat Prod, 2006):

Test: Antiinflammatory activity in human PMN assessed as inhibition of Phorbol-12-myristate-13-acetate-induced ROS production
Assay type: functional

IC50	Compound
13.1 µM	C=CCC1=CC(OC)(/C(C)=C/c2ccc3c(c2)OCO3)C(OC)=CC1=O (stereo not given) [FUTOQUINOL]
8.4 µM	O=C(/C=C/c1ccc(O)cc1)NCCc1ccc(O)cc1 [N-P-COUMAROYL TYRAMINE]
4.3 µM	C=CCC1=C[C@@](OC)(/C(C)=C/c2ccc(O)c(OC)c2)C(OC)=CC1=O [PIPERKADSIN A]
12.2 µM	C=CCC1([C@H](C)[C@@H](OC(C)=O)c2ccc(OC)c(OC)c2)C=C(OC)C(OC)=CC1=O (stereo not given in full) [PIPERKADSIN B]
7 µM	COc1c(O)cc2c3c(cc4ccccc4c13)N(OC)C2=O [PIPERLACTAM S]
